The target in series [1] is T1, 3',5'-cyclic-AMP phosphodiesterase 4A (Homo sapiens, UniProt P27815). Nature of the series: Inhibitory concentration against human PDE4A isoform using a construct representing the common region of spliced variants expressed as GST-fusion protein in Sf9 cells.
Target sequence in this assay (P27815 whole entry, looked up, stated change not applied, the tested form may be a part, canonical isoform): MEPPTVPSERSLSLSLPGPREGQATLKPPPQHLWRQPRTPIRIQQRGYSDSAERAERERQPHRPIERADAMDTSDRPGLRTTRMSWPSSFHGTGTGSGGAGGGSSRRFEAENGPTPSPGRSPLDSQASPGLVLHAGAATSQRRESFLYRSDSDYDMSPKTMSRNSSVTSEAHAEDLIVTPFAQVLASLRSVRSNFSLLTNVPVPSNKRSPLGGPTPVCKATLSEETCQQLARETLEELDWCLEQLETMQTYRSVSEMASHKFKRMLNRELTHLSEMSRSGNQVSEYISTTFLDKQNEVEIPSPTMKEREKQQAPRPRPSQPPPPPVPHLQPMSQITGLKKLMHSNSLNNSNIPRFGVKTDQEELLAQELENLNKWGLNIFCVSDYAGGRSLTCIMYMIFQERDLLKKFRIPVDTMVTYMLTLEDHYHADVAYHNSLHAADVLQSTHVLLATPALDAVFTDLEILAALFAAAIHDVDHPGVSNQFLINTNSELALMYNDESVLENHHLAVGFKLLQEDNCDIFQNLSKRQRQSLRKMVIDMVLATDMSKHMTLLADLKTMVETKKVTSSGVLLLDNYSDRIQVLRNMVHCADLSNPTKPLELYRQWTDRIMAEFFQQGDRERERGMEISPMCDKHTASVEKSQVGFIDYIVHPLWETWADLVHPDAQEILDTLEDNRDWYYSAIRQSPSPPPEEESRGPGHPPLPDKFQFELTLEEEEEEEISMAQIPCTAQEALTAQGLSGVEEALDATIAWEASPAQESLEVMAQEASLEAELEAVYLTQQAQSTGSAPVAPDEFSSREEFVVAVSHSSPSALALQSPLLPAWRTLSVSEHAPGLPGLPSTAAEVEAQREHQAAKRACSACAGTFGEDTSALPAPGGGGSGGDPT
For series [2], the target named is T1, 3',5'-cyclic-AMP phosphodiesterase 4A. As to the kind of experiment: Inhibitory concentration of compound against LPS- induced TNF-alpha production in whole human blood assay. In kind it is functional, tissue-based.
Target sequence in this assay (P27815 whole entry, the tested form may be a part, canonical isoform): as the sequence (P27815 whole entry, looked up, stated change not applied, the tested form may be a part, canonical isoform) above
A short description of series [3]: Half life of compound was determined in squirrel monkey. To be noted: in vivo. In kind it is ADME.
Series [4] in a line: Ascaris-induced bronchoconstriction in anesthetized squirrel monkey pretreated with 5 mg/kg intravenously for 30 min. To be noted: route intravenous. In kind it is functional.
Series [5] is described as follows: Half life of compound was determined in rat. In kind it is ADME, organism-based. To be noted: in vivo.
Series [6] is filed under the species Mustela putorius furo. As to the kind of experiment: Emetic effect in ferrets. In kind it is functional.
A short description of series [7]: Bioavailability. It counts as ADME, organism-based. To be noted: eutheria, in vivo.
The nature of series [8]: Half-life period was determined. It counts as ADME.
Series [9] has as its system Ovis aries. Nature of the series: Ascaris-induced early phase bronchoconstriction in conscious sheep administered intravenously at 2 mg/kg. It counts as functional. To be noted: route intravenous.
Series [10] relates to Ovis aries. Nature of the series: Ascaris-induced late phase bronchoconstriction in conscious sheep administered intravenously at 2 mg/kg. To be noted: route intravenous. In kind it is functional.
Series [11] is described as follows: Ascaris-induced bronchoconstriction in anesthetized squirrel monkey pretreated with 3 mg/kg peroral dose for 4 hr. In kind it is functional. The following applies: route oral.
For series [12], the system named is Cavia porcellus. Nature of the series: Ovalbumin induced bronchoconstriction in conscious guinea pig pretreated with 1 mg/kg intraperitoneal dose for 4 hr. In kind it is functional.

Bounds are passed on as bounds.

In general, IC50 refers to the concentration that inhibits the measured activity by half. One may read the half-life as the time in which the quantity being followed falls by half. As usually defined, the bioavailability is dose-corrected exposure relative to a reference, in per cent.

As for `CCNC(=O)OCc1ccc(C(Cc2cc[n+]([O-])cc2)c2ccc(OC(F)F)c(OC(F)F)c2)cc1` (stereo not given), the IC50 in [1] was 4.6 nM; in series [2], 410 nM.

With `COc1ccc([C@H](Cc2ccncc2)c2ccccc2)cc1OC1CCCC1` [CDP840], the IC50 in series [1] is 4.3 nM; in [2] it was 16000 nM. The half-life in series [3] is under 1 h; in series [5], under 0.5 h. Besides, in series [4], the Efficacy is given as 64%. The Dose in series [6] worked out at 30 mg/kg.

As to `[O-][n+]1ccc(CC(c2ccc(COc3ccc(F)cc3)cc2)c2ccc(OC(F)F)c(OC(F)F)c2)cc1` (stereo not given), the figures for the half-inhibitory concentration (IC50) in series [1] and in series [2] were 0.5 nM and 1900 nM, respectively.

With `COc1ccc(C(Cc2ccncc2)c2ccc(Cl)cc2)cc1OC1CCCC1` (stereo not given), the IC50 is 2.8 nM in [1] and 12000 nM in series [2].

As for `Cc1ccccc1C(=O)NS(=O)(=O)c1ccc(C(Cc2cc[n+]([O-])cc2)c2ccc(OC(F)F)c(OC(F)F)c2)cc1` (stereo not given), the IC50 amounted to 3.1 nM in [1] and 75000 nM in series [2].

Regarding `O=C(O)c1ccc(C(Cc2cc[n+]([O-])cc2)c2ccc(OC(F)F)c(OC(F)F)c2)cc1` (stereo not given), the results for the IC50 in series [1] and in series [2] were 24 nM and 77000 nM, respectively.

As for `[O-][n+]1ccc(CC(c2ccc(C3(O)CC3)cc2)c2ccc(OC(F)F)c(OC(F)F)c2)cc1` (stereo not given), the values for the IC50 in series [1] and in [2] were 16 nM and 1700 nM, respectively.

Turning to `CN(C)C(=O)c1ccc(C(Cc2cc[n+]([O-])cc2)c2ccc(OC(F)F)c(OC(F)F)c2)cc1` (stereo not given), the results for the half-inhibitory concentration (IC50) in series [1] and in series [2] were 8.6 nM and 1000 nM, respectively.

As for `[O-][n+]1ccc(CC(c2ccc(C3(O)CCC3)cc2)c2ccc(OC(F)F)c(OC(F)F)c2)cc1` (stereo not given), the 50% inhibitory concentration (IC50) worked out at 7.5 nM in series [1] and 380 nM in series [2]. The bioavailability in series [7] was 100%. Besides, in [8], the half-life was 2 h.

Take `[O-][n+]1ccc(CC(c2ccc(CO)cc2)c2ccc(OC(F)F)c(OC(F)F)c2)cc1` (stereo not given): the 50% inhibitory concentration (IC50) was 44 nM in [1] and 470 nM in [2].

In the case of `Cc1ccc(C(=O)c2ccc(C(Cc3cc[n+]([O-])cc3)c3ccc(OC(F)F)c(OC(F)F)c3)cc2)nc1` (stereo not given), the values for the IC50 in series [1] and in [2] were 7.3 nM and 890 nM, respectively.

Take `FC(F)Oc1ccc(C(Cc2ccncc2)c2ccc(Cl)cc2)cc1OC(F)F` (stereo not given): the half-maximal inhibitory concentration (IC50) turned out to be 11 nM in series [1] and 4500 nM in series [2].

`Clc1ccc(C(Cc2ccncc2)c2ccc3c(c2)OCO3)cc1` (stereo not given) yielded an IC50 in series [1] of over 1000 nM.

Turning to `O=C(O)Cc1ccc(C(Cc2cc[n+]([O-])cc2)c2ccc(OC(F)F)c(OC(F)F)c2)cc1` (stereo not given), the figures for the concentration for half-maximal inhibition (IC50) in series [1] and in [2] were 53 nM and 58000 nM, respectively.

As for `CC(C)(C(=O)O)c1cccc(-c2ccc(C(Cc3cc[n+]([O-])cc3)c3ccc(OC(F)F)c(OC(F)F)c3)cc2)c1` (stereo not given), the 50% inhibitory concentration (IC50) in series [1] turned out to be 2.2 nM; in series [2], 6500 nM.

Consider `FC(F)Oc1ccc(C(Cc2ccncc2)c2ccc(Cl)cc2)cc1OC1CCCC1` (stereo not given), for which the figures for the IC50 in [1] and in [2] were 13 nM and 8700 nM, respectively.

As to `CC(O)c1ccc(C(Cc2cc[n+]([O-])cc2)c2ccc(OC(F)F)c(OC(F)F)c2)cc1` (stereo not given), the results for the IC50 in series [1] and in series [2] were 45 nM and 510 nM, respectively.

On to `COc1ccc(C(Cc2ccncc2)c2ccc(Cl)cc2)c(F)c1OC1CCCC1` (stereo not given), for which the IC50 turned out to be 110 nM in [1] and 98000 nM in [2].

Regarding `CC(C)(O)c1ccc(C(Cc2cc[n+]([O-])cc2)c2ccc(OC(F)F)c(OC(F)F)c2)cc1` (stereo not given), the values for the IC50 in series [1] and in series [2] were 9.6 nM and 360 nM, respectively. In [7], this molecule had a bioavailability of 55%. In [8], the half-life was 1 h.

As to `Clc1ccc(C(Cc2ccncc2)c2ccc3c(c2)OCCO3)cc1` (stereo not given), the IC50 in series [1] stood at 772 nM.

Take `[O-][n+]1ccc(CC(c2ccc(C(O)(C(F)(F)F)C(F)(F)F)cc2)c2ccc(OC(F)F)c(OC(F)F)c2)cc1` (stereo not given): the values for the IC50 in series [1] and in [2] were 4.2 nM and 670 nM, respectively. The half-life is 48 h in series [3] and over 24 h in series [5]. The Efficacy in series [9] was determined as 85%; in [10] it was 95%; in series [11] it was 96%; in [12], 58%. For the same molecule, in [6], the Dose was over 3 mg/kg.

For the origin of these results see ChEMBL document CHEMBL1135123, “Discovery of L-791,943: a potent, selective, non emetic and orally active phosphodiesterase-4 inhibitor” (Bioorg Med Chem Lett, 2002).
